# From PubChem BioAssay AID2060493 (Molecular Pharmacology Branch, DTP, NCI, 2025)
# System: 616215-338-R-J1-PDC tumor spheroids, viability
# Test: Anticancer human tumor 616215-338-R-J1-PDC patient-derived colon adenocarcinoma cell line growth inhibition [GQUAD]
# Conditions: spheroids with HUVEC and MSC; for IC50: curve of first compound; for viability, T/C: stronger effect = lower value
# Outline: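 Viability of tumor cells grown as complex spheroids with endothelial and stromal cells, exposed to drug combinations. Top concentration at or near clinical Cmax (else 10 microM), diluted in half-log increments.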
# [1] = second compound 0.0316 µM, first compound 0.0316 µM
# [2] = second compound 0.0316 µM, first compound 0.1 µM
# [3] = second compound 0.0316 µM, first compound 0.316 µM
# [4] = second compound 0.0316 µM, first compound 1 µM
# [5] = second compound 0.0316 µM, first compound 3.16 µM
# [6] = second compound 0.0316 µM, first compound 10 µM
# [7] = second compound 0.1 µM, first compound 0.0316 µM
# [8] = second compound 0.1 µM, first compound 0.1 µM
# [9] = second compound 0.1 µM, first compound 0.316 µM
# [10] = second compound 0.1 µM, first compound 1 µM
# [11] = second compound 0.1 µM, first compound 3.16 µM
# [12] = second compound 0.1 µM, first compound 10 µM
# [13] = second compound 0.316 µM, first compound 0.0316 µM
# [14] = second compound 0.316 µM, first compound 0.1 µM
# [15] = second compound 0.316 µM, first compound 0.316 µM
# [16] = second compound 0.316 µM, first compound 1 µM
# [17] = second compound 0.316 µM, first compound 3.16 µM
# [18] = second compound 0.316 µM, first compound 10 µM
# [19] = second compound 1 µM, first compound 0.0316 µM
# [20] = second compound 1 µM, first compound 0.1 µM
# [21] = second compound 1 µM, first compound 0.316 µM
# [22] = second compound 1 µM, first compound 1 µM
# [23] = second compound 1 µM, first compound 3.16 µM
# [24] = second compound 1 µM, first compound 10 µM
# [25] = second compound 3.16 µM, first compound 0.0316 µM
# [26] = second compound 3.16 µM, first compound 0.1 µM
# [27] = second compound 3.16 µM, first compound 0.316 µM
# [28] = second compound 3.16 µM, first compound 1 µM
# [29] = second compound 3.16 µM, first compound 3.16 µM
# [30] = second compound 3.16 µM, first compound 10 µM
# [31] = second compound 10 µM, first compound 0.0316 µM
# [32] = second compound 10 µM, first compound 0.1 µM
# [33] = second compound 10 µM, first compound 0.316 µM
# [34] = second compound 10 µM, first compound 1 µM
# [35] = second compound 10 µM, first compound 3.16 µM
# [36] = second compound 10 µM, first compound 10 µM
# 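Also: spheroids exposed to agents for 7 days before readout.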
# 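For viability, T/C in this document: percent viability relative to DMSO vehicle control wells taken as 100%.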
smiles,measurement,setting,value
C=CCn1c(=O)c2cnc(Nc3ccc(N4CCN(C)CC4)cc3)nc2n1-c1cccc(C(C)(C)O)n1 + Cc1[nH]c2ccc(F)cc2c1-c1nc2c3cccnc3c3ncccc3c2[nH]1,IC50,second compound 0.0316 µM,330 nM
same,IC50,second compound 0.1 µM,352 nM
same,IC50,second compound 0.316 µM,315 nM
same,IC50,second compound 1 µM,342 nM
same,IC50,second compound 3.16 µM,256 nM
same,IC50,second compound 10 µM,227 nM
same,"viability, T/C",[1],95.5%
same,"viability, T/C",[2],90.1%
same,"viability, T/C",[3],48.3%
same,"viability, T/C",[4],25.4%
same,"viability, T/C",[5],12.4%
same,"viability, T/C",[6],12.2%
same,"viability, T/C",[7],97.4%
same,"viability, T/C",[8],99.9%
same,"viability, T/C",[9],50.6%
same,"viability, T/C",[10],28.4%
same,"viability, T/C",[11],17.9%
same,"viability, T/C",[12],11.9%
same,"viability, T/C",[13],106%
same,"viability, T/C",[14],99.6%
same,"viability, T/C",[15],47.5%
same,"viability, T/C",[16],25.4%
same,"viability, T/C",[17],12.9%
same,"viability, T/C",[18],12.4%
same,"viability, T/C",[19],103%
same,"viability, T/C",[20],104%
same,"viability, T/C",[21],52%
same,"viability, T/C",[22],18.6%
same,"viability, T/C",[23],14.2%
same,"viability, T/C",[24],9.69%
same,"viability, T/C",[25],98.4%
same,"viability, T/C",[26],87.7%
same,"viability, T/C",[27],40.9%
same,"viability, T/C",[28],15.8%
same,"viability, T/C",[29],11.1%
same,"viability, T/C",[30],6.8%
same,"viability, T/C",[31],95.3%
same,"viability, T/C",[32],88.3%
same,"viability, T/C",[33],34%
same,"viability, T/C",[34],17.9%
same,"viability, T/C",[35],11.2%
same,"viability, T/C",[36],6.71%
O=c1[nH]cc(F)c(=O)[nH]1 + Cc1[nH]c2ccc(F)cc2c1-c1nc2c3cccnc3c3ncccc3c2[nH]1,IC50,second compound 0.0316 µM,685 nM
same,IC50,second compound 0.1 µM,380 nM
same,IC50,second compound 0.316 µM,592 nM
same,IC50,second compound 1 µM,729 nM
same,IC50,second compound 3.16 µM,342 nM
same,IC50,second compound 10 µM,289 nM
same,"viability, T/C",[1],97.7%
same,"viability, T/C",[2],96.9%
same,"viability, T/C",[3],64.3%
same,"viability, T/C",[4],43%
same,"viability, T/C",[5],48.1%
same,"viability, T/C",[6],37%
same,"viability, T/C",[7],102%
same,"viability, T/C",[8],94.4%
same,"viability, T/C",[9],51.8%
same,"viability, T/C",[10],41.3%
same,"viability, T/C",[11],36.3%
same,"viability, T/C",[12],35.1%
same,"viability, T/C",[13],99.6%
same,"viability, T/C",[14],92.6%
same,"viability, T/C",[15],57.1%
same,"viability, T/C",[16],47%
same,"viability, T/C",[17],37%
same,"viability, T/C",[18],34.2%
same,"viability, T/C",[19],96%
same,"viability, T/C",[20],94.8%
same,"viability, T/C",[21],65.1%
same,"viability, T/C",[22],46.1%
same,"viability, T/C",[23],39.2%
same,"viability, T/C",[24],43.6%
same,"viability, T/C",[25],98.3%
same,"viability, T/C",[26],82.9%
same,"viability, T/C",[27],51.5%
same,"viability, T/C",[28],37.6%
same,"viability, T/C",[29],38.8%
same,"viability, T/C",[30],42.7%
same,"viability, T/C",[31],102%
same,"viability, T/C",[32],83.8%
same,"viability, T/C",[33],46.7%
same,"viability, T/C",[34],38.9%
same,"viability, T/C",[35],34.3%
same,"viability, T/C",[36],36.2%
C=CCn1c(=O)c2cnc(Nc3ccc(N4CCN(C)CC4)cc3)nc2n1-c1cccc(C(C)(C)O)n1 + Cc1cnc(CNC(=O)c2c(=O)c3ccc(N4CCCN(C)CC4)nc3n3c2sc2ccccc23)cn1,IC50,second compound 0.0316 µM,255 nM
same,IC50,second compound 0.1 µM,131 nM
same,IC50,second compound 0.316 µM,< 31.6 nM
same,IC50,second compound 1 µM,< 31.6 nM
same,IC50,second compound 3.16 µM,< 31.6 nM
same,IC50,second compound 10 µM,< 31.6 nM
same,"viability, T/C",[1],110%
same,"viability, T/C",[2],71.4%
same,"viability, T/C",[3],44.4%
same,"viability, T/C",[4],32.2%
same,"viability, T/C",[5],23.4%
same,"viability, T/C",[6],21.9%
same,"viability, T/C",[7],57.2%
same,"viability, T/C",[8],55%
same,"viability, T/C",[9],40.1%
same,"viability, T/C",[10],38.3%
same,"viability, T/C",[11],24.4%
same,"viability, T/C",[12],17.8%
same,"viability, T/C",[13],44.1%
same,"viability, T/C",[14],39.4%
same,"viability, T/C",[15],30%
same,"viability, T/C",[16],30.2%
same,"viability, T/C",[17],27.7%
same,"viability, T/C",[18],21%
same,"viability, T/C",[19],29.8%
same,"viability, T/C",[20],30.8%
same,"viability, T/C",[21],21%
same,"viability, T/C",[22],21.9%
same,"viability, T/C",[23],25.2%
same,"viability, T/C",[24],17.3%
same,"viability, T/C",[25],31.2%
same,"viability, T/C",[26],31.8%
same,"viability, T/C",[27],19.8%
same,"viability, T/C",[28],17.5%
same,"viability, T/C",[29],12.2%
same,"viability, T/C",[30],16.8%
same,"viability, T/C",[31],25.1%
same,"viability, T/C",[32],26.2%
same,"viability, T/C",[33],13.2%
same,"viability, T/C",[34],15.5%
same,"viability, T/C",[35],16.8%
same,"viability, T/C",[36],15.5%
COc1ncnc(C2CC2)c1-c1ncc2cnn(Cc3ccc(-c4nc(C(F)(F)F)cn4C(C)C)cc3)c2n1 + CN(C)c1ccc(Nc2c3ccc(NC(=O)CCN4CCCC4)cc3nc3cc(NC(=O)CCN4CCCC4)ccc23)cc1,IC50,second compound 0.0316 µM,> 10000 nM
same,IC50,second compound 0.1 µM,> 10000 nM
same,IC50,second compound 0.316 µM,> 10000 nM
same,IC50,second compound 1 µM,> 10000 nM
same,IC50,second compound 3.16 µM,> 10000 nM
same,IC50,second compound 10 µM,9350 nM
same,"viability, T/C",[1],114%
same,"viability, T/C",[2],101%
same,"viability, T/C",[3],105%
same,"viability, T/C",[4],96.3%
same,"viability, T/C",[5],109%
same,"viability, T/C",[6],97.5%
same,"viability, T/C",[7],102%
same,"viability, T/C",[8],96.1%
same,"viability, T/C",[9],100%
same,"viability, T/C",[10],101%
same,"viability, T/C",[11],114%
same,"viability, T/C",[12],90.2%
same,"viability, T/C",[13],106%
same,"viability, T/C",[14],95.3%
same,"viability, T/C",[15],96.9%
same,"viability, T/C",[16],104%
same,"viability, T/C",[17],101%
same,"viability, T/C",[18],93.7%
same,"viability, T/C",[19],101%
same,"viability, T/C",[20],114%
same,"viability, T/C",[21],105%
same,"viability, T/C",[22],101%
same,"viability, T/C",[23],101%
same,"viability, T/C",[24],92.1%
same,"viability, T/C",[25],96.4%
same,"viability, T/C",[26],91.2%
same,"viability, T/C",[27],91.4%
same,"viability, T/C",[28],105%
same,"viability, T/C",[29],93.2%
same,"viability, T/C",[30],97.7%
same,"viability, T/C",[31],91.7%
same,"viability, T/C",[32],85.3%
same,"viability, T/C",[33],97.3%
same,"viability, T/C",[34],90.3%
same,"viability, T/C",[35],86.2%
same,"viability, T/C",[36],47.8%
